According to patent US9623048B2, “Human hepatocyte-like cells and uses thereof” (SHANGHAI INSTITUTES FOR BIOLOGICAL SCIENCES, CHINESE …, priority 2013, dated 2017):
Read-outs that look alike come from different tables or passages of the source.

Assays:
hiHep cells [1] = test: Sandwich culture biliary excretion assay in hiHep cells; conditions: sandwich cultured hiHep cells, 10 minutes incubation
Protocol: To prepare sandwich culture, 1×10^5 hiHep cells, primary human hepatocytes, and HFF were seeded in collagen I coated 24 well plate. 200 μL 1.5 mg/ml freshly prepared neutralized collagen gel solution were then poured on cells. After solidification, cells were cultured in Williams' E medium supplemented with 5% FBS, 10 μM TCA and 2 μM cAMP for a further 4 days.
To analyze the biliary excretion index, cells were washed once and then incubate in HBSS buffer or Calcium free HBSS buffer at 37° C. […] Cumulative uptake was stopped by washing with cold HBSS buffer for three times. […] The amount of CLF was quantified by measuring fluorescence at 492 nm and 536 nm with a Synergy 4 microplate reader (Biotek, Winooski, USA). Biliary Excretion Index (BEI) was calculated as: BEI=(AHBSS−AHBSS([…]))/AHBSS×100%.
Membrane transporter-mediated biliary excretion is another important function of hepatocytes for clearance of xenobiotics. Drug clearance through biliary excretion is a critically evaluated property in the selection of drug candidates.

hiHep^LT cells = test: CYP metabolism assay in hiHep^LT cells; conditions: passage 10
Protocol: (§1) For the measurement of CYP enzyme activities, cells were induced with different compounds for certain drug metabolisms. The supernatants were collected for measurement of metabolized compounds by LC-MS/MS (Agilent 1200 HPLC and ABI 4000 mass-spectrometer).
(§2) Freshly thawed primary human hepatocytes were directly used as a positive control. Cells were incubated with substrate in 200 μl incubation medium at different concentrations for 3 hours at 37° C. To stop the reaction, […] cold methanol was added and centrifuged. The supernatants were collected for measurement of metabolized compounds by LC-MS/MS (Agilent 1200 HPLC and ABI 4000 mass-spectrometer). Total cell protein amount was used to normalize the data. Substrates and metabolized products used for standard curves were commercially purchased.

hiHep cells [2] = test: CYP metabolism assay in hiHep cells (LC-MS/MS of metabolic products)
Protocol: as §1, §2
Freshly thawed primary human hepatocytes were directly used as a positive control.

MSC-hiHep cells = test: CYP metabolism assay in AD-MSC-derived hiHep cells
Protocol: as §2

[3] = test system: CYP450 enzymes in hiHep cells; test: CYP induction assay in hiHep cells (q-PCR); conditions: 48 hours inducer treatment
Protocol: Total RNA was extracted to measure the induction of CYP enzymes responding to chemical inducers by q-PCR. Total RNA of cells without inducer treatment were used to measure the expression of CYP450 genes and nuclear receptor genes.
Next, assays were carried out to analyze whether hiHep cells were responsive to CYP inducers.
Transcriptional activation of CYP450 enzymes and many other drug metabolism enzymes are mediated by nuclear receptors including AHR, CAR, and PXR.

Compound: CC(CCC(=O)NC(CCCCNC(=S)Nc1ccc(-c2c3ccc(=O)cc-3oc3cc(O)ccc23)c(C(=O)O)c1)C(=O)O)C1CCC2C3C(O)CC4CC(O)CCC4(C)C3CC(O)C12C (stereo not drawn) [CLF, cholyl-lysyl-fluorescein]
- biliary excretion indices (BEI) (hiHep cells [1]): remarkable

Compound: COc1ccc2c(c1)[C@]13CCCC[C@@H]1[C@H](C2)N(C)CC3 [dextromethorphan]
- products of metabolism (hiHep^LT cells): not detected
- CYP enzyme-dependent metabolism (hiHep cells [2]; hiHep cells after 48 hours CYP induction, 3 hours incubation): showed CYP enzyme-dependent metabolism
- products of metabolism (MSC-hiHep cells): not detected

Compound: O=c1ccc2ccccc2o1 [coumarin]
- CYP enzyme-dependent metabolism (hiHep cells [2]): showed CYP enzyme-dependent metabolism

Compound: [D-Pen2,5]-enkephalin hydrate [DPDPE]
- biliary excretion indices (BEI) (hiHep cells [1]): remarkable

Compound: Cc1ccc2cc3c(ccc4ccccc43)c3c2c1CC3 [3-methylcholanthrene]
- induction of mRNA expression levels of CYP1A2, CYP2A6, CYP2B6, CYP2C8 and CYP2C9 [3]: markedly induced

Compound: CCC1(c2ccccc2)C(=O)NC(=O)NC1=O [phenobarbital]
- induction of CYP3A4 mRNA [3]: relatively low but significant level
- induction of mRNA expression levels of CYP1A2, CYP2A6, CYP2B6, CYP2C8 and CYP2C9 [3]: markedly induced
